Reference: US20250101034A1, “COMPOSITIONS USEFUL FOR MODULATING SPLICING” (SKYHAWK THERAPEUTICS, INC., priority 2021, published 2025)

Tests used:
[1] = tested on: ATXN3 transcripts containing exon 4 (E4E5); test: ATXN3 quantitative splicing assay (qPCR, SK-N-MC cells); assay type: cell-based; settings: Homo sapiens, 24 h treatment, qPCR E4E5 primers/probe, read-out: ATXN3 Potency - Splicing E4E5 IC50
Method in brief: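 SK-N-MC cells treated 24 h with compound (30 μM to 0.6 nM, 0.3% DMSO) 24 h after plating; lysates reverse-transcribed and analysed by TaqMan qPCR. E4E5 primers/probe detect exon 4–containing transcripts; E8E9 measures total ATXN3, alongside exon 4–skipped transcript detection.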

[2] = tested on: total ATXN3 protein; test: ATXN3 total protein assay (MSD, SK-N-MC cells); assay type: cell-based, Human; settings: 48 hours incubation, read-out: ATXN3 Potency - Protein IC50
Method in brief: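 SK-N-MC human neuroblastoma cells treated with compound (30 μM to 0.6 nM) for 48 h, then lysed with protease inhibitors. Total ATXN3 measured by MSD sandwich immunoassay (mouse capture, rabbit detection antibodies, anti-rabbit MSD-ST secondary), quantified against recombinant ATXN3 standards.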

| SMILES | IC50 [1] | IC50 [2] |
| --- | --- | --- |
| CCc1c(C[C@H](C)N)sc2c(NCc3cccs3)cnnc12 [Compound 23, 6-[(2S)-2-aminopropyl]-7-ethyl-N-[(thiophen-2-yl)methyl]thieno[3,2-c]pyridazin-4-amine] | 5 to 10 µM | 5 to 10 µM |
| Cc1c(C[C@H](C)N)sc2c(NCc3cnco3)cnnc12 [Compound 46, 6-[(2S)-2-aminopropyl]-7-methyl-N-[(1,3-oxazol-5-yl)methyl]thieno[3,2-c]pyridazin-4-amine] | 10 to 40 µM | 10 to 40 µM |
| Cc1c(C(F)(F)[C@H](C)N)sc2c(NCc3cccs3)cnnc12 [Compound 125, 6-[(2S)-2-amino-1,1-difluoropropyl]-7-methyl-N-(thiophen-2-ylmethyl)thieno[3,2-c]pyridazin-4-amine] | 0.501 to 5 µM | 0.501 to 5 µM |
| Cc1nnc2c(C)csc2c1NCc1cccs1 [Compound 57, 3,7-dimethyl-N-[(thiophen-2-yl)methyl]thieno[3,2-c]pyridazin-4-amine] | 10 to 40 µM | 10 to 40 µM |
| Cc1c(C(F)[C@H](C)N)sc2c(NCc3cccs3)cnnc12 (stereo partly drawn) [Compound 55, 6-[(2S)-2-amino-1-fluoropropyl]-7-methyl-N-[(thiophen-2-yl)methyl]thieno[3,2-c]pyridazin-4-amine] | 0.501 to 5 µM | 0.501 to 5 µM |
| Cc1c(C[C@H](C)N)sc2c(NCc3cc(F)cs3)cnnc12 [Compound 45, 6-[(2S)-2-aminopropyl]-N-[(4-fluorothiophen-2-yl)methyl]-7-methylthieno[3,2-c]pyridazin-4-amine] | 0.501 to 5 µM | 0.501 to 5 µM |
| Cc1c([C@H](O)[C@H](C)N)sc2c(NCc3cccs3)cnnc12 (single isomer, unassigned) [Compound 41] | 10 to 40 µM | 10 to 40 µM |

Continued, values first:

| IC50 [1] | IC50 [2] | SMILES |
| --- | --- | --- |
| 5 to 10 µM | 0.501 to 5 µM | Cc1c(CC(N)C2COC2)sc2c(NCc3cccs3)cnnc12 (stereo not drawn) [Compound 93, 6-[2-amino-2-(oxetan-3-yl)ethyl]-7-methyl-N-[(thiophen-2-yl)methyl]thieno[3,2-c]pyridazin-4-amine] |
| 10 to 40 µM | 10 to 40 µM | Cc1csc2c(NCc3ccco3)cnnc12 [Compound 11, N-[(furan-2-yl)methyl]-7-methylthieno[3,2-c]pyridazin-4-amine] |
| 0.501 to 5 µM | 0.501 to 5 µM | Cc1c(C[C@@H](N)CCOC(F)F)sc2c(NCc3cccs3)cnnc12 [Compound 139, 6-[(2S)-2-amino-4-(difluoromethoxy)butyl]-7-methyl-N-(thiophen-2-ylmethyl)thieno[3,2-c]pyridazin-4-amine] |
| 0.501 to 5 µM | 0.101 to 0.5 µM | N[C@@H](CO)Cc1sc2c(NCc3ccco3)cnnc2c1Br [Compound 95, (2R)-2-amino-3-(7-bromo-4-{[(furan-2-yl)methyl]amino}thieno[3,2-c]pyridazin-6-yl)propan-1-ol] |
| 10 to 40 µM | 10 to 40 µM | Cc1c(C[C@@H](N)C[C@@H]2CC2(F)F)sc2c(NCc3cccs3)cnnc12 [Compound 128, 6-[(2S)-2-amino-3-[(1R)-2,2-difluorocyclopropyl]propyl]-7-methyl-N-(thiophen-2-ylmethyl)thieno[3,2-c]pyridazin-4-amine] |
| 5 to 10 µM | 5 to 10 µM | Cc1c(C[C@@H](N)CC#N)sc2c(NCc3ccco3)cnnc12 [Compound 38, (3S)-3-amino-4-(4-{[(furan-2-yl)methyl]amino}-7-methylthieno[3,2-c]pyridazin-6-yl)butanenitrile] |
| 0.501 to 5 µM | 0.501 to 5 µM | Cc1c(CC(N)CF)sc2c(NCc3cccs3)cnnc12 (stereo not drawn) [Compound 141, 6-(2-amino-3-fluoropropyl)-7-methyl-N-[(thiophen-2-yl)methyl]thieno[3,2-c]pyridazin-4-amine] |
| 5 to 10 µM | 5 to 10 µM | Cc1c(C[C@@H](N)CS(C)(=O)=O)sc2c(NCc3cccs3)cnnc12 [Compound 60, 6-[(2R)-2-amino-3-methanesulfonylpropyl]-7-methyl-N-(thiophen-2-ylmethyl)thieno[3,2-c]pyridazin-4-amine] |
